What was measured:
PARP1 = PARP1 (Homo sapiens (Human), UniProt P09874); assay: PARP1 trapping assay; assay type: biochemical; details: read-out: Inhibitory Effect on PARP1 Trapping IC50
Outline: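 PARP1 and PARP2 with GST-Tb antibody and probe incubated with serially diluted compounds for 45 min at room temperature, then NAD added for 10 min before plate reading. Percent inhibition derived from compound, blank and vehicle control readings.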

PARP2 = PARP2 (Homo sapiens (Human), UniProt Q9UGN5); assay: PARP2 trapping assay; assay type: biochemical; details: read-out: Inhibitory Effect on PARP2 Trapping IC50
Description: [table] […] 1. A 4× enzyme reaction mixture, comprising PARP1, PARP2, and GST-Tb antibody, was prepared with the buffer and 4 μL of the enzyme reaction mixture was added to a 384-well plate. 2. A 4×PARP1 and PARP2 probe reaction mixture was prepared with the buffer and 4 μL of the probe reaction mixture was added to the 384-well plate. 3. A series of gradient-diluted compounds were prepared and 4 μL of the diluted compounds were added to the 384-well plate, and incubated at room temperature for 45 minutes. 4. After incubation, 4 μL of 4×NAD reaction mixture was added to the 384-well plate and incubated at room temperature for 10 minutes. 5. After incubation, the plate was read using a plate reader. 6. Data Analysis: The percentage inhibition rate was calculated as follows: Inhibition Rate (%)=(Reading of Compound Group−Reading of Blank Group)/(Reading of Vehicle Control Group−Reading of Blank Group).

[1] = Liver microsome metabolism assay; details: CD1, mouse, liver microsomes
Description: Experimental Materials: Mixed CD1 mouse liver microsomal enzyme protein was purchased from Xenotech (#M1000), and NADPH was purchased from Abmole (#M9076).
1. To the liver microsomal enzyme reaction system, 210 μL of phosphate buffer was added, followed by 12.5 μL of liver microsomal enzyme at a concentration of 20 mg/mL. Then, 25 μL of NADPH at a concentration of 10 mM was added to the system, mixed well, and incubated in a 37° C. water bath with shaking for 10 minutes.
2. The test compound, stored at a concentration of 10 mM, was diluted to 100 μM with DMSO. Then, 2.5 μL of the diluted test compound was added to the reaction system, mixed well, and incubated in a 37° C. water bath with shaking.
3. At 0.5, 5, 10, 20, 30, and 60 minutes, 25 μL of the enzyme reaction mixture was taken and added to 125 μL of cold acetonitrile containing dexamethasone as an internal standard. The mixture was centrifuged at 4000 g for 20 minutes, and the supernatant was mixed with an equal volume of distilled water. The mixed sample was then subjected to quantitative analysis by liquid chromatography-mass spectrometry.
4. Calculation of in vitro drug metabolism half-life and drug clearance rate:
t1/2=−0.693/k. (k: the slope of the linear regression of the natural logarithm of the percentage of drug remaining versus incubation time).

[2] = test system: human breast cancer (MDA-MB-436) cell line; assay: Mouse CDX tumor model (MDA-MB-436 subcutaneous xenograft); assay type: in vivo; details: for Tumor Growth Inhibition Rate (TGI): 28 days
Description: Test Objective: The efficacy of the compounds was evaluated in a subcutaneous xenograft model of human breast cancer (MDA-MB-436) cell line in mice.
Test Compounds: Olaparib, Compound 1
Experimental Animals: Female NOD SCID mice, 4-5 weeks old, purchased from Nanjing Jicui.
Housing and Management: The experimental animals were housed in SPF-grade, temperature- and humidity-controlled clean rooms, using individually ventilated cages (IVC) with no more than 5 mice per cage. Temperature/humidity was controlled within the range of (23±3)° C./40-70%. Feed and water: SPF-grade mouse feed, sterilized by cobalt-60 irradiation. Drinking water was ultrafiltered and autoclaved. Animals had free access to sterile food and water. Animal identification: ear tags.
Tumor Cell Line and Tumor Model: MDA-MB-436 cells (Nanjing Cobioer Biotechnology Co., Ltd., Cat. No: CBP60385) were cultured in vitro in DMEM complete medium containing 10% fetal bovine serum, 1% penicillin-streptomycin, 1% insulin, and 16 μg/mL glutathione (37° C., 5% CO2). When the cells met the requirements for the in vivo efficacy experiment, they were collected, counted, and prepared into a PBS cell suspension. Each mouse (5-6 weeks old NOD SCID) was inoculated subcutaneously on the right flank with 0.9×10^7 cells. Tumor volume was measured and calculated three times a week after inoculation. When the tumor volume reached approximately 200-300 mm^3, the mice were grouped for administration.
Experimental Groups: The experiment was divided into the following groups: vehicle control group; Olaparib 100 mg/kg group; Compound 1 0.1 mg/kg group; Compound 1 0.3 mg/kg group; and Compound 1 1.0 mg/kg group. All groups were administered orally by gavage once daily. […] After 28 days of administration, the tumor volume was used to calculate the tumor growth inhibition rate (TGI %), and the tumor inhibition effect was statistically analyzed using software such as Excel, etc.

[3] = Evaluation of pharmacokinetics in rats; assay type: in vivo; details: male, SD, rat, plasma, 1 mg/kg, oral gavage (PO, 1 mpk)
Source text: Test Animals: 6-8 Week Old Male SD Rats
Food was restored two hours after dosing.

[4] = test system: MDA-MB-436 breast cancer cells; assay: Cell proliferation assay, MDA-MB-436; assay type: cell-based; details: Homo sapiens, MDA-MB-436, 168 h, read-out: MDA-MB-436 Cell IC50
Outline: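 Cells seeded 16 h, then exposed to a 9-point 1:3 compound dilution series for 7 days at 37° C., 5% CO2; DMSO-matched and cell-free controls. Viability by CellCounting-Lite luminescence; IC50 from log concentration versus % inhibition.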

PARP2, sequence (Q9UGN5 whole entry): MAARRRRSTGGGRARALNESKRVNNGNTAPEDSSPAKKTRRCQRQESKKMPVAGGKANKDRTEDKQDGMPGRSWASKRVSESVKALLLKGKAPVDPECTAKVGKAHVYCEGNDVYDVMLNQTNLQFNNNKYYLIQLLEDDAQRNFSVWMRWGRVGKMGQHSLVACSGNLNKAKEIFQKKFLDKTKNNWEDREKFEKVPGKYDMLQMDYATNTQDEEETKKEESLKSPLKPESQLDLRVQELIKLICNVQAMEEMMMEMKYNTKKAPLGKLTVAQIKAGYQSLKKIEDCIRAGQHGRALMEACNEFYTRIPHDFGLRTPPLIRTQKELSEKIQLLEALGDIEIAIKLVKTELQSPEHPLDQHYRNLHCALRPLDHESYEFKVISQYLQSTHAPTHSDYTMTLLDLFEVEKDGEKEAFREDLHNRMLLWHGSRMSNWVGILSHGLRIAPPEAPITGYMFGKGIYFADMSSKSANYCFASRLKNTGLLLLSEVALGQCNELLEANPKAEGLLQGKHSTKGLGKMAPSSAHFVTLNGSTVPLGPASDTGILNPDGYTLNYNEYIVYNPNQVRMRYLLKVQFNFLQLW
PARP1, sequence (P09874 whole entry): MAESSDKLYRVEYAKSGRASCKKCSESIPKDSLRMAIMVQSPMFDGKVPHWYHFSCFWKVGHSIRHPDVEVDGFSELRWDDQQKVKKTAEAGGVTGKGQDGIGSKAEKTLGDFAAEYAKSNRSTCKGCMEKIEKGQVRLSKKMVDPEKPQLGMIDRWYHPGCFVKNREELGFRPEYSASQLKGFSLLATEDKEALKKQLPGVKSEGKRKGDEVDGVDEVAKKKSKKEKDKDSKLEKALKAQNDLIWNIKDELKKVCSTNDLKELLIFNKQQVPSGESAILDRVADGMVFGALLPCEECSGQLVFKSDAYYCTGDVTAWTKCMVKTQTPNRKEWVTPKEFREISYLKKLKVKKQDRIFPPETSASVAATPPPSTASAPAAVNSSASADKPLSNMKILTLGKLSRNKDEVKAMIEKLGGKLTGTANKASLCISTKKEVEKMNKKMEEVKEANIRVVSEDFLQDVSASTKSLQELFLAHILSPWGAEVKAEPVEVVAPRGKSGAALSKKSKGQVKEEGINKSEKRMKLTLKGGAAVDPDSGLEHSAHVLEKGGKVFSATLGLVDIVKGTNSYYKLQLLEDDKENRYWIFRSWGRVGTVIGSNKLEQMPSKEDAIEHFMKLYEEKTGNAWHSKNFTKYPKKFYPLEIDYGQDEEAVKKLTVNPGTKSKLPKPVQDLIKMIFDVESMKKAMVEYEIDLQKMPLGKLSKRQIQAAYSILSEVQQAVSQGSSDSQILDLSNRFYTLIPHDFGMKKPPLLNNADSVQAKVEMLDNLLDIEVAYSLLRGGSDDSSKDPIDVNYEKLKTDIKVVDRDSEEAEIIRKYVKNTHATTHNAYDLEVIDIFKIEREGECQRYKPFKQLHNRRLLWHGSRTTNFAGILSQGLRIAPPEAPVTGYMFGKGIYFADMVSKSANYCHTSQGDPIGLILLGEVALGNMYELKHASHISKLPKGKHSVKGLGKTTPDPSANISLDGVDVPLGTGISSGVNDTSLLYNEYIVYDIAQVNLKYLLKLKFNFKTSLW

Compound `CNC(=O)c1ccc(N2CCN(Cc3cnc4c(C)c(C(F)(F)F)c(=O)[nH]c4c3)CC2)cn1` [Compound 1, N-methyl-5-(4-((8-methyl-6-oxo-7-(trifluoromethyl)-5,6-dihydro-1,5-naphthyridin-3-yl)methyl)piperazin-1-yl)picolinamide] has an IC50 (PARP1) of 1.33 nM, an IC50 (PARP2) of 164 nM and a microsomal CLint at 1 µM [1] of 0.32 µL/min/mg. For the same compound, the “Tumor Growth Inhibition Rate (TGI)” value ([2]; 0.1 mg/kg oral once daily) was 89%, the “Tumor Growth Inhibition Rate (TGI)” value ([2]; 0.3 mg/kg oral once daily) was 113% and the “Tumor Growth Inhibition Rate (TGI)” value ([2]; 1.0 mg/kg oral once daily) was 115%. The “Body weight vs vehicle control group” value ([2]; MDA-MB-436 model, all treatment groups) was “no significant difference”, the AUC(0-inf) [3] was 11300 ng·h/mL and the Cmax [3] was 1740 ng/mL. For the same compound, the half-life [3] was 4.33 h and the IC50 [4] was 1.59 nM.
